Tested on: MV-4-11 cells
Test: Gene expression microarray analysis (Affymetrix PrimeView) and GSEA
Type: cell-based, human
Design: RFU PODN (11730768_x_at) / Fold change /veh PODN (11730768_x_at) / RFU LINC00158 (11744669_a_at) / Fold change /veh LINC00158 (11744669_a_at) / RFU DUSP10 (11751237_a_at) / Fold change /veh DUSP10 (11751237_a_at) / RFU ID3 (11757404_x_at) / Fold change /veh ID3 (11757404_x_at) / RFU PLEKHG5 (11737974_s_at) / Fold change /veh PLEKHG5 (11737974_s_at) / RFU LRRC4B (11730491_at) / Fold change /veh LRRC4B (11730491_at) / RFU GIMAP4 (11747438_a_at) / Fold change /veh GIMAP4 (11747438_a_at) / RFU KRT8 (11758183_x_at) / Fold change /veh KRT8 (11758183_x_at) / RFU CNN1 (11734310_a_at) / Fold change /veh CNN1 (11734310_a_at) / RFU VPS37D (11726825_at) / Fold change /veh VPS37D (11726825_at) / RFU C10orf10 (11716522_x_at) / Fold change /veh C10orf10 (11716522_x_at) / RFU KIR2DL2 /// KIR2DL4 /// KIR2DL5A /// KIR2DL5B /// KIR2DS1 /// KIR2DS2 /// KIR2DS3 /// KIR2DS4 /// KIR3DL3 /// KIR3DL3 /// KIR3DS1 (11738374_at) / Fold change /veh KIR2DL2 /// KIR2DL4 /// KIR2DL5A /// KIR2DL5B /// KIR2DS1 /// KIR2DS2 /// KIR2DS3 /// KIR2DS4 /// KIR3DL3 /// KIR3DL3 /// KIR3DS1 (11738374_at) / RFU C1QL1 (11718748_at) / Fold change /veh C1QL1 (11718748_at) / RFU TMPRSS4 (11747572_a_at) / Fold change /veh TMPRSS4 (11747572_a_at) / RFU HAMP (11756126_x_at) / Fold change /veh HAMP (11756126_x_at) / RFU RNFT2 (11725882_a_at) / Fold change /veh RNFT2 (11725882_a_at) / RFU NR4A2 (11747474_a_at) / Fold change /veh NR4A2 (11747474_a_at) / RFU ABCC12 (11746883_a_at) / Fold change /veh ABCC12 (11746883_a_at) / RFU TMEM136 (11760407_x_at) / Fold change /veh TMEM136 (11760407_x_at) / RFU CLDN22 /// WWC2 (11732394_at) / Fold change /veh CLDN22 /// WWC2 (11732394_at) / RFU HLA-DPB1 (11760878_x_at) / Fold change /veh HLA-DPB1 (11760878_x_at) / RFU SPINT1 (11716480_a_at) / Fold change /veh SPINT1 (11716480_a_at) / RFU GAP43 (11754022_s_at) / Fold change /veh GAP43 (11754022_s_at) / RFU A4GNT (11735810_at) / Fold change /veh A4GNT (11735810_at) / RFU PRB3 (11715151_x_at) / Fold change /veh PRB3 (11715151_x_at) / RFU TUBB4B (11761932_at) / Fold change /veh TUBB4B (11761932_at) / RFU CAPN14 (11732068_a_at) / Fold change /veh CAPN14 (11732068_a_at) / RFU TMCC2 (11721928_a_at) / Fold change /veh TMCC2 (11721928_a_at) / RFU IRGQ (11745062_a_at) / Fold change /veh IRGQ (11745062_a_at) / RFU FAM174B (11720279_a_at) / Fold change /veh FAM174B (11720279_a_at) / RFU TMPRSS4 (11748680_a_at) / Fold change /veh TMPRSS4 (11748680_a_at) / RFU FAM212B (11763350_a_at) / Fold change /veh FAM212B (11763350_a_at) / RFU PLEKHG5 (11743358_a_at) / Fold change /veh PLEKHG5 (11743358_a_at) / RFU ZSCAN30 (11745921_a_at) / Fold change /veh ZSCAN30 (11745921_a_at) / RFU CMKLR1 (11741424_a_at) / Fold change /veh CMKLR1 (11741424_a_at) / RFU LOC101060620 /// MAPK8IP1 (11723275_at) / Fold change /veh LOC101060620 /// MAPK8IP1 (11723275_at) / RFU SPTSSB (11747773_x_at) / Fold change /veh SPTSSB (11747773_x_at) / RFU PRSS12 (11739890_at) / Fold change /veh PRSS12 (11739890_at) / RFU BIN1 (11741810_x_at) / Fold change /veh BIN1 (11741810_x_at) / RFU WNT11 (11732464_a_at) / Fold change /veh WNT11 (11732464_a_at) / RFU C10orf10 (11716521_a_at) / Fold change /veh C10orf10 (11716521_a_at) / RFU C5orf56 (11738089_at) / Fold change /veh C5orf56 (11738089_at) / RFU CYB561 (11721691_x_at) / Fold change /veh CYB561 (11721691_x_at) / RFU ANKRD19P (11752326_a_at) / Fold change /veh ANKRD19P (11752326_a_at) / RFU OR2T12 /// OR2T33 /// OR2T8 (11738714_s_at) / Fold change /veh OR2T12 /// OR2T33 /// OR2T8 (11738714_s_at) / RFU VCAN (11748164_a_at) / Fold change /veh VCAN (11748164_a_at) / RFU JSRP1 (11732532_at) / Fold change /veh JSRP1 (11732532_at) / RFU KRTAP10-11 (11738290_x_at) / Fold change /veh KRTAP10-11 (11738290_x_at) / RFU MYO3A (11730013_a_at) / Fold change /veh MYO3A (11730013_a_at) / RFU EBF3 (11725865_a_at) / Fold change /veh EBF3 (11725865_a_at) / RFU CAMK2N1 (11719241_x_at) / Fold change /veh CAMK2N1 (11719241_x_at) / RFU C5orf56 (11738088_a_at) / Fold change /veh C5orf56 (11738088_a_at) / RFU OLFML3 (11715873_a_at) / Fold change /veh OLFML3 (11715873_a_at) / RFU LOC100653217 /// NTM (11731650_a_at) / Fold change /veh LOC100653217 /// NTM (11731650_a_at) / RFU MAPK11 (11762145_a_at) / Fold change /veh MAPK11 (11762145_a_at) / RFU FIZ1 (11724087_x_at) / Fold change /veh FIZ1 (11724087_x_at) / RFU OASL (11726364_x_at) / Fold change /veh OASL (11726364_x_at) / RFU SOX15 (11748057_x_at) / Fold change /veh SOX15 (11748057_x_at) / RFU CD79A (11719716_a_at) / Fold change /veh CD79A (11719716_a_at) / RFU HIST1H1D (11736915_at) / Fold change /veh HIST1H1D (11736915_at) / RFU CASKIN2 (11723855_a_at) / Fold change /veh CASKIN2 (11723855_a_at) / RFU LOC730098 (11760151_x_at) / Fold change /veh LOC730098 (11760151_x_at) / RFU OR4N2 (11742367_at) / Fold change /veh OR4N2 (11742367_at) / RFU PRRT2 (11749266_a_at) / Fold change /veh PRRT2 (11749266_a_at) / RFU SNX32 (11753110_a_at) / Fold change /veh SNX32 (11753110_a_at) / RFU CDHR5 (11726645_a_at) / Fold change /veh CDHR5 (11726645_a_at) / RFU RCAN1 (11760418_a_at) / Fold change /veh RCAN1 (11760418_a_at) / RFU FAM167A (11723789_a_at) / Fold change /veh FAM167A (11723789_a_at) / RFU FAM26E (11764081_at) / Fold change /veh FAM26E (11764081_at) / RFU ISYNA1 (11749810_s_at) / Fold change /veh ISYNA1 (11749810_s_at) / RFU ACY1 (11761880_at) / Fold change /veh ACY1 (11761880_at) / RFU 11764098_at / Fold change /veh 11764098_at / RFU SAMD14 (11745864_x_at) / Fold change /veh SAMD14 (11745864_x_at) / RFU NPB (11741838_a_at) / Fold change /veh NPB (11741838_a_at) / RFU TMPRSS6 (11731388_a_at) / Fold change /veh TMPRSS6 (11731388_a_at) / RFU KRTAP10-2 (11738614_at) / Fold change /veh KRTAP10-2 (11738614_at) / RFU ARHGAP8 /// PRR5-ARHGAP8 (11727945_x_at) / Fold change /veh ARHGAP8 /// PRR5-ARHGAP8 (11727945_x_at) / RFU KRTAP5-7 /// NADSYN1 (11734609_at) / Fold change /veh KRTAP5-7 /// NADSYN1 (11734609_at) / RFU RASL12 (11751679_a_at) / Fold change /veh RASL12 (11751679_a_at) / RFU CDKN2B (11736163_a_at) / Fold change /veh CDKN2B (11736163_a_at) / RFU PRF1 (11729649_at) / Fold change /veh PRF1 (11729649_at) / RFU, ZNF638 /// ZNF638-IT1 / Fold change vs veh, ZNF638 /// ZNF638-IT1 / RFU, PANK3 / Fold change vs veh, PANK3 / RFU, SH3YL1 / Fold change vs veh, SH3YL1 / RFU, ZEB2 / Fold change vs veh, ZEB2 / RFU, NRIP1 / Fold change vs veh, NRIP1 / RFU, PTTG1IP / Fold change vs veh, PTTG1IP / RFU, CAPN2 / Fold change vs veh, CAPN2 / RFU, MED14 / Fold change vs veh, MED14 / RFU, SNORA58 / Fold change vs veh, SNORA58 / RFU, C1orf63 / Fold change vs veh, C1orf63 / RFU, LRRFIP1 / Fold change vs veh, LRRFIP1 / RFU, NDUFAF7 / Fold change vs veh, NDUFAF7 / RFU, SLC12A2 / Fold change vs veh, SLC12A2 / RFU, IBTK / Fold change vs veh, IBTK / RFU, ESF1 / Fold change vs veh, ESF1 / Fold change vs veh, TMEM50B / RFU, TAOK1 / Fold change vs veh, TAOK1 / RFU, ACBD3 / Fold change vs veh, ACBD3 / RFU, TMA16 / Fold change vs veh, TMA16 / RFU, RWDD3 / Fold change vs veh, RWDD3 / RFU, BCAT1 / Fold change vs veh, BCAT1 / RFU, EDEM3 / Fold change vs veh, EDEM3 / RFU, TMEM33 / Fold change vs veh, TMEM33 / RFU, WDR75 / Fold change vs veh, WDR75 / RFU, AHCTF1 / Fold change vs veh, AHCTF1 / RFU, TFRC / Fold change vs veh, TFRC / RFU, ZDHHC17 / Fold change vs veh, ZDHHC17 / RFU, NOM1 / Fold change vs veh, NOM1 / RFU, ARL8B / Fold change vs veh, ARL8B / RFU, ZBTB11 / Fold change vs veh, ZBTB11 / RFU, TAMM41 / Fold change vs veh, TAMM41 / RFU, KIAA1704 /// LOC100996395 / Fold change vs veh, KIAA1704 /// LOC100996395 / RFU, ING1 / Fold change vs veh, ING1 / RFU, TRMT61B / Fold change vs veh, TRMT61B / RFU, FUBP3 / Fold change vs veh, FUBP3 / RFU, TP53 / Fold change vs veh, TP53 / RFU, TNKS2 / Fold change vs veh, TNKS2 / RFU, ZFP14 / Fold change vs veh, ZFP14 / RFU, ACTR2 / Fold change vs veh, ACTR2 / RFU, PPP3R1 / Fold change vs veh, PPP3R1 / RFU, PIK3R1 / Fold change vs veh, PIK3R1 / RFU, HNRNPA1 / Fold change vs veh, HNRNPA1 / RFU, RNF170 / Fold change vs veh, RNF170 / RFU, ZNF28 / Fold change vs veh, ZNF28 / RFU, RNGTT / Fold change vs veh, RNGTT / RFU, OGT / Fold change vs veh, OGT / RFU, BRD1 / Fold change vs veh, BRD1 / RFU, MARS / Fold change vs veh, MARS / RFU, ZNF655 / Fold change vs veh, ZNF655 / RFU, FAHD1 / Fold change vs veh, FAHD1 / RFU, BDP1 / Fold change vs veh, BDP1 / RFU, LRRCC1 / Fold change vs veh, LRRCC1 / RFU, ARID1A / Fold change vs veh, ARID1A / RFU, ZNF146 / Fold change vs veh, ZNF146 / RFU, ZNF330 / Fold change vs veh, ZNF330 / RFU, GPN3 / Fold change vs veh, GPN3 / RFU, C9orf123 / Fold change vs veh, C9orf123 / RFU, N4BP2L2 / Fold change vs veh, N4BP2L2 / RFU, ARFIP1 / Fold change vs veh, ARFIP1 / RFU, FAM179B / Fold change vs veh, FAM179B / RFU, BCL10 / Fold change vs veh, BCL10 / RFU, UHRF1BP1L / Fold change vs veh, UHRF1BP1L / RFU, BET1 / Fold change vs veh, BET1 / RFU, CNOT2 / Fold change vs veh, CNOT2 / RFU, ZNF268 / Fold change vs veh, ZNF268 / Fold change vs veh, ZNF507 / RFU, DGCR2 / Fold change vs veh, DGCR2 / RFU, WDSUB1 / Fold change vs veh, WDSUB1 / Fold change vs veh, HSP90B1 /// MIR3652 / RFU, ADSS / Fold change vs veh, ADSS / RFU, GK / Fold change vs veh, GK / RFU, ZNF148 / Fold change vs veh, ZNF148 / RFU, TAF9 / Fold change vs veh, TAF9 / RFU, SLC1A5 / Fold change vs veh, SLC1A5 / RFU, SLMO2 / Fold change vs veh, SLMO2 / RFU, ABCC4 / Fold change vs veh, ABCC4 / RFU, LOC101060439 /// RAP1B / Fold change vs veh, LOC101060439 /// RAP1B / RFU, RFX7 / Fold change vs veh, RFX7 / RFU, GTPBP10 / Fold change vs veh, GTPBP10 / RFU, CNEP1R1 / Fold change vs veh, CNEP1R1 / RFU, BIVM-ERCC5 /// ERCC5 / Fold change vs veh, BIVM-ERCC5 /// ERCC5 / RFU, ILF3 / Fold change vs veh, ILF3 / RFU 11762660_at / Fold change /veh 11762660_at / RFU VCAN (11757783_s_at) / Fold change /veh VCAN (11757783_s_at) / RFU DDX43 (11728927_at) / Fold change /veh DDX43 (11728927_at) / RFU KRT8 (11758188_x_at) / Fold change /veh KRT8 (11758188_x_at) / RFU NKD1 (11759106_at) / Fold change /veh NKD1 (11759106_at) / RFU SRD5A1 (11742802_a_at) / Fold change /veh SRD5A1 (11742802_a_at) / RFU TPSAB1 /// TPSB2 (11721975_s_at) / Fold change /veh TPSAB1 /// TPSB2 (11721975_s_at) / RFU GSTM3 (11746129_a_at) / Fold change /veh GSTM3 (11746129_a_at) / RFU IL23R (11737362_x_at) / Fold change /veh IL23R (11737362_x_at) / RFU TMEM51 (11727254_a_at) / Fold change /veh TMEM51 (11727254_a_at) / RFU PIWIL2 (11732686_x_at) / Fold change /veh PIWIL2 (11732686_x_at) / RFU ORM1 (11744905_x_at) / Fold change /veh ORM1 (11744905_x_at) / RFU CCDC152 (11743942_at) / Fold change /veh CCDC152 (11743942_at) / RFU ECM1 (11717891_a_at) / Fold change /veh ECM1 (11717891_a_at) / RFU IL23R (11748794_a_at) / Fold change /veh IL23R (11748794_a_at) / RFU TNFAIP8L3 (11732012_x_at) / Fold change /veh TNFAIP8L3 (11732012_x_at) / RFU MBOAT4 (11741988_at) / Fold change /veh MBOAT4 (11741988_at) / RFU 11764193_at / Fold change /veh 11764193_at / RFU TMEM53 (11763286_at) / Fold change /veh TMEM53 (11763286_at) / RFU MAGEB2 (11727129_at) / Fold change /veh MAGEB2 (11727129_at) / RFU TMEM200A (11744735_a_at) / Fold change /veh TMEM200A (11744735_a_at) / RFU CCDC152 (11751479_a_at) / Fold change /veh CCDC152 (11751479_a_at) / RFU FAM211A (11726209_a_at) / Fold change /veh FAM211A (11726209_a_at) / RFU RGS16 (11746705_a_at) / Fold change /veh RGS16 (11746705_a_at) / RFU VCAN (11755009_s_at) / Fold change /veh VCAN (11755009_s_at) / RFU RHOB (11743442_s_at) / Fold change /veh RHOB (11743442_s_at) / RFU RGS16 (11720943_a_at) / Fold change /veh RGS16 (11720943_a_at) / RFU RGS16 (11720944_at) / Fold change /veh RGS16 (11720944_at) / RFU, VPS4B / Fold change vs veh, VPS4B / RFU, CREB1 / Fold change vs veh, CREB1 / RFU, DNAJC13 / Fold change vs veh, DNAJC13 / RFU, GNAQ / Fold change vs veh, GNAQ / RFU, CDK5R1 / Fold change vs veh, CDK5R1 / RFU, ZRANB3 / Fold change vs veh, ZRANB3 / RFU, CUL4A / Fold change vs veh, CUL4A / RFU, CCNY / Fold change vs veh, CCNY / RFU, UFL1 / Fold change vs veh, UFL1 / RFU, COG3 / Fold change vs veh, COG3 / RFU, DIAPH2 / Fold change vs veh, DIAPH2 / RFU, SKA2 / Fold change vs veh, SKA2 / RFU, AFF3 / Fold change vs veh, AFF3 / RFU, LMF1 / Fold change vs veh, LMF1 / RFU, IPO11 / Fold change vs veh, IPO11 / RFU, DFFB / Fold change vs veh, DFFB / RFU, FOXP1 / Fold change vs veh, FOXP1 / RFU, CARD8 / Fold change vs veh, CARD8 / RFU, STRN3 / Fold change vs veh, STRN3 / RFU, ADK / Fold change vs veh, ADK / RFU, RASSF2 / Fold change vs veh, RASSF2 / RFU, WIPF1 / Fold change vs veh, WIPF1 / RFU, LARP1B / Fold change vs veh, LARP1B / RFU, RASA1 / Fold change vs veh, RASA1 / RFU, RB1 / Fold change vs veh, RB1 / RFU, PPFIA1 / Fold change vs veh, PPFIA1 / RFU, MAT2A / Fold change vs veh, MAT2A / RFU, CCT5 / Fold change vs veh, CCT5 / RFU, WDR92 / Fold change vs veh, WDR92 / RFU, CUX1 / Fold change vs veh, CUX1 / RFU, TTC7A / Fold change vs veh, TTC7A / RFU, TMEM135 / Fold change vs veh, TMEM135 / RFU, DEPTOR / Fold change vs veh, DEPTOR / RFU, CPM / Fold change vs veh, CPM / RFU, DNAJB6 / Fold change vs veh, DNAJB6 / RFU, CACNA2D3 / Fold change vs veh, CACNA2D3 / RFU, DTX4 / Fold change vs veh, DTX4 / RFU, TFCP2 / Fold change vs veh, TFCP2 / RFU, GMCL1 /// GMCL1P1 / Fold change vs veh, GMCL1 /// GMCL1P1 / RFU, AEBP2 / Fold change vs veh, AEBP2 / RFU, SNHG1 /// SNORD22 /// SNORD25 /// SNORD26 /// SNORD27 /// SNORD28 /// SNORD29 /// SNORD31 / Fold change vs veh, SNHG1 /// SNORD22 /// SNORD25 /// SNORD26 /// SNORD27 /// SNORD28 /// SNORD29 /// SNORD31 / Fold change (Aza/veh), C12orf56 (ProbeSet 11735607_a_at) / Fold change (ACY-1035/veh), C12orf56 (ProbeSet 11735607_a_at) / Fold change (Aza/veh), FGFR1OP (ProbeSet 11751329_s_at) / Fold change (ACY-1035/veh), FGFR1OP (ProbeSet 11751329_s_at) / Fold change (Aza/veh), VPS36 (ProbeSet 11739960_a_at) / Fold change (ACY-1035/veh), VPS36 (ProbeSet 11739960_a_at) / RFU SYPL1 (11715823_x_at) / Fold change /veh SYPL1 (11715823_x_at) / RFU IGFBP7 (11715501_s_at) / Fold change /veh IGFBP7 (11715501_s_at) / RFU REEP3 (11722064_at) / Fold change /veh REEP3 (11722064_at) / RFU IGLL1 (11728026_x_at) / Fold change /veh IGLL1 (11728026_x_at): dose or concentration left out as unconfirmed
Conditions: MV-4-11 cells, 48 hours

Compound: Nc1ncn([C@@H]2O[C@H](CO)[C@@H](O)[C@H]2O)c(=O)n1 [azacitidine]
- RFU OR2T12 /// OR2T33 /// OR2T8 (11738714_s_at): 6.40 RFU
